Experimental data published in patent publication US20090215025A1, “SMALL PEPTIDIC AND PEPTIDO-MIMETIC AFFINITY LIGANDS FOR FACTOR VIII AND FACTOR VIII-LIKE PROTEINS” (TECHNISCHE UNIVERSITAT MUNCHEN, priority 2005, published 2009).
[ ]: non-standard residue; d: D form. Bpa = N[C@@H](Cc1ccc(C(=O)c2ccccc2)cc1)C(=O)O; 1Nal = N[C@@H](Cc1cccc2ccccc12)C(=O)O; 2Nal = N[C@@H](Cc1ccc2ccccc2c1)C(=O)O

Key:
[1] = target: T1, plasma-derived (pd-) human Factor VIII (FVIII) (Homo sapiens, UniProt P00451); experiment: Binding of 125I-labeled pd-FVIII to peptides immobilized on Toyopearl AF-Epoxy-650M resin (micro-beads assay)
T1 construct: from tissue; host or cells: human blood plasma (FVIII concentrate)
T1 sequence (P00451 20-1667 limits assumed): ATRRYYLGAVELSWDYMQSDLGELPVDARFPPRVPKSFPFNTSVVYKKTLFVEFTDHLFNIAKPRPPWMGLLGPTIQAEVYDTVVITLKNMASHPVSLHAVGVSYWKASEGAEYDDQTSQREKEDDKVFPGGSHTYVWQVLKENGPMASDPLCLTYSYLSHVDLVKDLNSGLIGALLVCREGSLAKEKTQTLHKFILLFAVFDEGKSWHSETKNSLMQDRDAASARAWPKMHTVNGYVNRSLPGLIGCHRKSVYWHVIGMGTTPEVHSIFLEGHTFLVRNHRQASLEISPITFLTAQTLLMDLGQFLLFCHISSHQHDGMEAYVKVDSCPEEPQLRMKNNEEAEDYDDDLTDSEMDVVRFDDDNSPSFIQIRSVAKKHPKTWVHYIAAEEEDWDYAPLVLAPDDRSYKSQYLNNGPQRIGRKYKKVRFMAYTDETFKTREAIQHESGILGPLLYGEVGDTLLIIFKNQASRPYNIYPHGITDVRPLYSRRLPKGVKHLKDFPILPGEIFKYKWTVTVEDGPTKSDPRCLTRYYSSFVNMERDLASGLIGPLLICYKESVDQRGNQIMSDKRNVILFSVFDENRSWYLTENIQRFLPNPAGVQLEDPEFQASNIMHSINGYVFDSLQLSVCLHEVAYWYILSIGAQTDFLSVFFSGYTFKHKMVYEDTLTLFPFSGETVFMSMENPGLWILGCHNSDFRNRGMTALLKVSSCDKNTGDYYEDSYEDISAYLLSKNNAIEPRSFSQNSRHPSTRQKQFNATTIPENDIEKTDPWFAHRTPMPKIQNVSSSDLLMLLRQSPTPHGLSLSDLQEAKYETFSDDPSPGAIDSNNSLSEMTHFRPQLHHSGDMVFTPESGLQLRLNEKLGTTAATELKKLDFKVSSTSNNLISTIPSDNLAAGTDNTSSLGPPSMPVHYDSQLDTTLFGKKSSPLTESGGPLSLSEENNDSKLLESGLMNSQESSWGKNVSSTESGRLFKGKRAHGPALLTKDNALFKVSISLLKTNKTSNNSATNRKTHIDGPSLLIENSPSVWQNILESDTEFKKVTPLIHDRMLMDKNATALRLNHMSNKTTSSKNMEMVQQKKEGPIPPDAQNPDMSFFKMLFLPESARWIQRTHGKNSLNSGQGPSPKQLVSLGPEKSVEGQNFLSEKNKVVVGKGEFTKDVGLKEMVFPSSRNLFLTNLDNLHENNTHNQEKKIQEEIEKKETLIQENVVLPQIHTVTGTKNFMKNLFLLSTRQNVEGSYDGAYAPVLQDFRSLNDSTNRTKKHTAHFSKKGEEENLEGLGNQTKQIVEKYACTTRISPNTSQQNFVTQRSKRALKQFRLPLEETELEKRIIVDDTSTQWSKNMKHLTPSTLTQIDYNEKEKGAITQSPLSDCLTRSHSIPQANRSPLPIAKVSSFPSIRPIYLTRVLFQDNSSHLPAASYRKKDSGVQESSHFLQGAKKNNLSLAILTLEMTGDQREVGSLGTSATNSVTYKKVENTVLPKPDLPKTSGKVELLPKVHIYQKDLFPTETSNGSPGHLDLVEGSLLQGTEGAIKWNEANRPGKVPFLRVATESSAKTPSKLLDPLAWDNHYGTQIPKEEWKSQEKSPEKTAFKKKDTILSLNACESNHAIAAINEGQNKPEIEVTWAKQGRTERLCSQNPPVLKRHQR
T1 sequence (P00451 1668-2351 limits assumed): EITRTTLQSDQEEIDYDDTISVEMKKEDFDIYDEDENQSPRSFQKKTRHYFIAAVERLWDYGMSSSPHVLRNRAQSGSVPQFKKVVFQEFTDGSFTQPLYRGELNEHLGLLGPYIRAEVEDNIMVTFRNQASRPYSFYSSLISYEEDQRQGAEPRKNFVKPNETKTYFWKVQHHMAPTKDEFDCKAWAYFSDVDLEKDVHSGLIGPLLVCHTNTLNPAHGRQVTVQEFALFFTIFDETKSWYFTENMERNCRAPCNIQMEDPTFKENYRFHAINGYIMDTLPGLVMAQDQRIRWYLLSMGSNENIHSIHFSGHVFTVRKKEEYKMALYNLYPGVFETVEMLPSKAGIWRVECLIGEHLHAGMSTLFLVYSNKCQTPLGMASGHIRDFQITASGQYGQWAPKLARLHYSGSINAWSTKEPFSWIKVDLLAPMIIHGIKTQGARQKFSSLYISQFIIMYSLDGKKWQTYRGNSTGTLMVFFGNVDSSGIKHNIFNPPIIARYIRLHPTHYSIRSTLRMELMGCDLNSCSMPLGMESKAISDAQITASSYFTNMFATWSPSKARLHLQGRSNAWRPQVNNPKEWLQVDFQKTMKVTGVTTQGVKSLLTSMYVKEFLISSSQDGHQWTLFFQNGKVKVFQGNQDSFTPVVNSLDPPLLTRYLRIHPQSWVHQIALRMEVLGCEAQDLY
Procedure: Peptides P1 to P25 were immobilized on the Toyopearl AF-Epoxy-650M resin (Tosoh Biosep) as described by Jungbauer et al. For immobilization, 2.5 mg of each peptide was dissolved in 0.25 mL of the immobilization buffer (0.2 M sodium bicarbonate, pH 10.3), and 0.036 g of the dry resin powder (corresponding to 0.125 mL of swollen resin) was added, followed by incubation of the mixture with gentle rotation for 48 hours. Upon incubation for 48 hours the resin was washed once with immobilization buffer, once with 1 M NaCl and then 3 times with binding buffer, and binding of ^125I-labeled pd-FVIII to the peptide-coated and control resin was tested. The coupling density of each peptide in each of the reported experiments was as mentioned in Table 1. The control 0.25 mL portion of the resin was similarly treated in parallel experiment in the absence of peptide and was subsequently used as a control (designated as Background) in ^125I-pd-FVIII binding experiments. ^125I-pd-FVIII Bound/Background ratios were calculated as the amount of ^125I-pd-FVIII, bound to an immobilized peptide, divided by that bound to uncoated control resin, prepared as described above. This ratio represents a Signal/Noise ratio for the micro-beads assay, since ^125I-pd-FVIII bound to peptide represents the signal value and ^125I-pd-FVIII bound to peptide-uncoated resin represents the background (noise) value.
Plasma-derived (pd-) human Factor VIII (FVIII) was purified from concentrate by immunoaffinity chromatography on an anti-FVIII monoclonal antibody column followed by subsequent concentration of pd-FVIII by ion-exchange chromatography using Resource Q HR5/5 column. To separate FVIII from vWf, concentrate was incubated in 0.35 M NaCl, 0.04 M CaCl2, prior to affinity purification.
Trace amounts of vWf, which are potentially present in pd-FVIII preparation, were removed by passing pd-FVIII preparation through the column with anti-vWf high affinity monoclonal antibody, immobilized at the density 1.4 mg per mL of resin.
Ten μg of purified pd-FVIII were iodinated using lactoperoxidase beads and 0.5 mCi of Na^125I.
The resin with immobilized peptides was washed in the binding buffer (0.01 M Hepes, 0.1 M NaCl, 5 mM CaCl2, 0.01% Tween-80). Subsequently, the resin was diluted in the binding buffer as 1:7 slurry and aliquoted into Eppendorf tubes (40 μl per tube). ^125I-pd-FVIII (100000 cpm in 10 μl) was added to the tubes and the volume of the mixture was adjusted to 100 μl by adding 50 μl of the binding buffer containing 4% BSA to give a 2% final concentration of BSA. After 2 hours of incubation at room temperature on a rotator, the samples were washed 4 times in the binding. After each wash the tubes were centrifuged at 5000 rpm for 1 min in an Eppendorf microcentrifuge, supernatant was discarded, and the resin was re-suspended in the washing buffer, followed by centrifugation under the same conditions. After four washes the tubes with pellet without supernatant were counted for radioactivity. The resin without peptide was processed similarly to account for non-specific pd-FVIII binding to tubes and resin itself, and the radioactivity in this control tube was considered as a background value. Since ^125I-pd-FVIII contains the some fraction damaged during radiolabeling, binding was calculated as a percent of maximal achievable binding, determined in separate experiment with anti-FVIII Mab 8860-coated resin.
All the measurements were performed in duplicates. Each experiment was performed using two independently prepared immobilized peptide samples. The data presented in each figure are the mean values of the four determinations: duplicate determination in the two assays performed with beads on which peptides were independently immobilized on the different days. […]

[2] = target: T2, pd-FVIII (Homo sapiens, UniProt P00451); experiment: Affinity chromatography purification of FVIII on peptide-coated resin column (OD280, one-stage APTT activity); settings: P1; Pure fVIII
T2 construct: from tissue; host or cells: human blood plasma (FVIII concentrate)
T2 sequence (P00451 20-1667 limits assumed): as the sequence (P00451 20-1667 limits assumed) above
T2 sequence (P00451 1668-2351 limits assumed): as the sequence (P00451 1668-2351 limits assumed) above
Procedure: The peptido-mimetic derivative P22 was immobilized on the Toyopearl resin as described in Example 1. 25 mg of peptide and 360 mg of resin were used. The resulting resin (˜1 ml) was packed in a glass column (Pharmacia-Biotech). The purification procedure was performed using a Waters 650E Advanced Protein Purification System. Buffer A was 0.01 M Hepes, 0.1 M NaCl, 5 mM CaCl2, 0.01% Tween-80 and Buffer B was 0.01 M Hepes, 1 M NaCl, 5 mM CaCl2, 0.01% Tween-80 (pH 6.8). The elution was monitored by a flow-through UV detector (Waters 490 E) by optical density at 280 nm (OD280). The elution fractions were then analyzed for their protein content by determining OD280 and FVIII activity was determined in a one-stage APTT assay using MLA Electra-800 automatic coagulation timer. The samples from elution fractions were analyzed by 10% PAGE followed by silver staining and Western blotting using monoclonal antibodies against FVIII.
FVIII (0.5 mg), previously purified by immunoaffinity and ion-exchange chromatography as described above, was diluted by 0.01 M Hepes, 5 mM CaCl2, 0.01% Tween-80 to a final salt concentration of 0.1 M NaCl. The mixture was applied onto the P22-column, followed by wash with Buffer A, until the OD280 returned to background.
The purification of FVIII was performed from cell-conditioned FBS-containing SF9 media, spiked with FVIII. FVIII (0.5 mg), previously purified by immunoaffinity and ion-exchange chromatography as described above, was mixed with cell-conditioned FBS-containing SF9 media, which was diluted with 0.01 M Hepes, 5 mM CaCl2, 0.01% Tween-80 to a final salt concentration of 0.1 M NaCl. The mixture was applied onto the column, followed by wash with Buffer A, until the OD280 returned to background. The wash with 85% Buffer A 15% Buffer B was performed to elute some of bound contaminating proteins.
Peptide P1 was bonded to the resin as described in Example 1. 25 mg of peptide and 360 mg of resin were used. The resulting resin (˜1 ml) was packed in a glass column (Pharmacia-Biotech). A FVIII containing sample was purified as described with respect to Example 3, the only difference between the two experiments being the absence of a prelusion step with Buffer A in the present experiment.

[3] = target: T2, pd-FVIII; experiment: as above; settings: P1; FBS-containing conditioned DMEM spiked with FVIII
[4] = Table 1, 125I-pd-FVIII Bound/Background ratio versus uncoated control resin
[5] = Table 1, immobilized on Toyopearl AF-Epoxy-650M, percent of maximal achievable binding (anti-FVIII Mab 8860-coated resin), mean of four determinations

Molecule	Binding, rel. to control [1, 4]	% Binding pdFVIII [1, 5] [%]	also measured
Ac-Trp-Glu-Tyr-Cys-NH2 (Ac-WEYC-NH2) [Compound P2]	18.9 ± 2.0	53.6 ± 5.7	–
ECYYEHWS [scrambled, reference compound]	–	–	% Binding pdFVIII ([1]; Table 2, comparative compound immobilized on Toyopearl AF-Epoxy-650M): 6.5 ± 0.5%; Binding, rel. to control ([1]; Table 2, ratio versus uncoated resin): 4.1 ± 0.3
H-Trp-Glu-Tyr-Aha-Cys-OH [Compound P5]	22.2 ± 1.9	42.7 ± 2.3	–
H-Trp-Glu-Tyr-Cys-OH (H-WEYC-OH) [Compound P1]	20.9 ± 1.7	47.6 ± 4.0	Activity, Elution [2]: 552 IU/ml; Activity, Flow-through [2]: 9 IU/ml; OD 280, Elution [2]: 0.108; OD 280, Flow-through [2]: 0.02; Purification, times [2]: 2 times; Activity, Elution [3]: 66 IU/ml; Activity, Flow-through [3]: 6 IU/ml; OD 280, Elution [3]: 0.08; OD 280, Flow-through [3]: 0.49; Purification, times [3]: 13 times
H-Trp-Glu-Tyr-Gly-Cys-OH (H-WEYGC-OH) [Compound P4]	27.4 ± 1.3	52.7 ± 2.5	–
H-Trp-Glu-Tyr-homo-Cys-OH [Compound P3]	21.9 ± 1.3	38.4 ± 2.3	–
H-WE[1Nal]C-OH [Compound P9]	23.8 ± 2.2	60.9 ± 5.5	–
H-[1Nal]EYC-OH [Compound P13]	26.1 ± 2.3	66.8 ± 5.9	–
H-[2Nal]EYC-OH [Compound P14]	22.7 ± 2.4	58.1 ± 6.1	–
H-[Bpa]EYC-OH [Compound P12]	22.3 ± 0.5	57.0 ± 1.39	–

Further lines, with some results ahead:

Binding, rel. to control [1, 4]	% Binding pdFVIII [1, 5] [%]	Molecule	also measured
22.7 ± 0.8	53.7 ± 1.9	O=C(O)CCC(NCCc1c[nH]c2ccccc12)C(=O)NC(Cc1ccc(O)cc1)C(=O)NC(CS)C(=O)O (stereo not shown) [Compound P25]	–
19.8 ± 0.3	56.1 ± 0.9	H-D-Cys-D-Tyr-D-Glu-D-Trp-OH [Compound P7]	–
24.7 ± 2.7	62.8 ± 6.9	H-Trp-Asp-Tyr-Cys-OH (H-WDYC-OH) [Compound P11]	–
8.7 ± 0.1	24.7 ± 0.1	H-Trp-Glu-Phe-Cys-OH (H-WEFC-OH) [Compound P8]	–
19.0 ± 3.0	54.1 ± 8.4	H-Trp-Glu-Tyr(OMe)-Cys-OH [Compound P10]	–
15.2 ± 0.7	43.1 ± 2.0	H-Trp-Glu-Tyr-Gly-Aha-Cys-OH [Compound P6]	–
24.7 ± 0.3	70.1 ± 0.8	IAA-Asp-Tyr-Cys-OH [Compound P16]	–
20.2 ± 2.5	57.2 ± 7.2	IBA-Asp-Tyr-Cys-OH [Compound P18]	–
24.7 ± 1.5	62.7 ± 3.9	IBA-Glu-Tyr-Cys-OH [Compound P17]	–
21.4 ± 1.4	60.7 ± 4.1	IPA-Asp-Tyr-Cys-OH [Compound P20]	–
18.7 ± 1.7	53.2 ± 4.9	IPA-Glu-Tyr-Cys-OH [Compound P19]	–
